Key:
14-3-3ζ/GR_pT524 [1] = target: 14-3-3ζ/GR_pT524 (Homo sapiens, UniProt P04150+P63104); assay: Fluorescence polarization; type: binding; settings: for 14-3-3/GR PPI stabilization activity (in words): FP assay
Caco-2 cells = assay: Permeability across Caco-2 cell monolayers; type: in vitro ADME; settings: for permeability classification: Caco-2; for increase of permeability vs 1: Caco-2 Papp(A to B) relative to compound 1
14-3-3ζ/ERα_pT594 = 14-3-3ζ/ERα_pT594 (Homo sapiens, UniProt P03372+P63104); assay: Fluorescence polarization; type: binding; settings: FP assay
14-3-3ζ/GR_pT524 [2] = target: T1, 14-3-3ζ/GR_pT524 (Homo sapiens, UniProt P63104); assay: SPR assay of GR_pT524 with 14-3-3ζ in the absence and presence of FC-A; type: binding; settings: FC-A 1 mM
T1 sequence (P63104 1-245): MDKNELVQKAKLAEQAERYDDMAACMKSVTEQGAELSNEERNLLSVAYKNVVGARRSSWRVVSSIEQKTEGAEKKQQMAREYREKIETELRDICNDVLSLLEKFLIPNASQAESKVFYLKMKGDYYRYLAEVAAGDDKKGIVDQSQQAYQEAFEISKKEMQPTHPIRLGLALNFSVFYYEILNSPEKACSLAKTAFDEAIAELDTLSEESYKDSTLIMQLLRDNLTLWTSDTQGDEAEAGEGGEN

Row | 14-3-3/GR PPI stabilization activity (in words) (14-3-3ζ/GR_pT524 [1]) | 14-3-3/ERα PPI stabilization activity (in words) (14-3-3ζ/ERα_pT594) | Structure (SMILES) | other results
1 | – | no 14-3-3/ERα PPI stabilization activity | O=C(O)c1cc(N2C(=O)C(O)=C(c3ccccc3)C2c2ccc([N+](=O)[O-])cc2)ccc1O (single isomer, unassigned; (+)) [(+)-28, 2-Hydroxy-5-(3-hydroxy-5-(4-nitrophenyl)-2-oxo-4-phenyl-2,5-dihydro-1H-pyrrol-1-yl) benzoic Acid] | –
2 | does not stabilize | – | C=CC(C)(C)OC[C@H]1O[C@H](O[C@@H]2C3=C([C@H](C)COC(C)=O)C[C@H](O)[C@]3(C)/C=C3/[C@@H](COC)CC[C@H]3[C@@H](C)[C@H]2O)[C@H](O)[C@@H](O)[C@@H]1O [FC-A, Fusicoccin A, reference compound] | effect on the interaction between GR_pT524 and 14-3-3ζ (SPR) (14-3-3ζ/GR_pT524 [2]): does not stabilize
3 | loss of measurable activity | loss of measurable activity | Nc1ccc(C2C(C(=O)c3ccccc3)=C(O)C(=O)N2c2ccc(O)c(C(=O)O)c2)cc1 (centres unmarked) [Compound 17, 5-(2-(4-Aminophenyl)-3-benzoyl-4-hydroxy-5-oxo-2,5-dihydro-1H-pyrrol-1-yl)-2-hydroxybenzoic Acid] | –

Continued, molecule first:

Row | Structure (SMILES) | 14-3-3/GR PPI stabilization activity (in words) (14-3-3ζ/GR_pT524 [1]) | 14-3-3/ERα PPI stabilization activity (in words) (14-3-3ζ/ERα_pT594) | other results
4 | O=C(C1=C(O)C(=O)N(c2ccc(O)cc2)C1c1ccc([N+](=O)[O-])cc1)c1ccccc1 (centres unmarked) [Compound 22, 4-Benzoyl-3-hydroxy-1-(4-hydroxyphenyl)-5-(4-nitrophenyl)-1,5-dihydro-2H-pyrrol-2-one] | only marginal activity | – | permeability classification (Caco-2 cells): medium permeability; increase of permeability vs 1 (Caco-2 cells): 3 fold
5 | O=C(O)c1cc(N2C(=O)C(O)=C(c3ccccc3)C2c2ccc([N+](=O)[O-])cc2)ccc1O (centres unmarked) [Compound 28, 2-Hydroxy-5-(3-hydroxy-5-(4-nitrophenyl)-2-oxo-4-phenyl-2,5-dihydro-1H-pyrrol-1-yl) benzoic Acid] | – | inactive | –
6 | O=C(C1=C(O)C(=O)N(c2ccc(O)c(C(=O)O)c2)C1c1ccc([N+](=O)[O-])cc1)c1ccccc1 (centres unmarked) [Compound 1, 5-(3-Benzoyl-4-hydroxy-2-(4-nitrophenyl)-5-oxo-2,5-dihydro-1H-pyrrol-1-yl)-2-hydroxybenzoic Acid] | – | – | decrease in potency for 14-3-3/GR compared to 14-3-3/ERα (14-3-3ζ/GR_pT524 [1]; from EC1.2 values): approximately 2 fold; permeability classification (Caco-2 cells): low permeability
7 | O=C(C1=C(O)C(=O)N(c2ccccc2O)C1c1ccc([N+](=O)[O-])cc1)c1ccccc1 (centres unmarked) [Compound 23, 4-Benzoyl-3-hydroxy-1-(2-hydroxyphenyl)-5-(4-nitrophenyl)-1,5-dihydro-2H-pyrrol-2-one] | only marginal activity | – | permeability classification (Caco-2 cells): medium permeability; increase of permeability vs 1 (Caco-2 cells): 5 fold
8 | O=C(C1=C(O)C(=O)N(c2ccc(O)c(C(=O)O)c2)C1c1ccccc1)c1ccccc1 (centres unmarked) [Compound 21, 5-(3-Benzoyl-4-hydroxy-5-oxo-2-phenyl-2,5-dihydro-1H-pyrrol-1-yl)-2-hydroxybenzoic Acid] | loss of measurable activity | loss of measurable activity | –
9 | O=C(C1=C(O)C(=O)N(c2ccc(O)c(C(=O)O)c2)[C@H]1c1ccc([N+](=O)[O-])cc1)c1ccccc1 [(S)-1, 5-(3-Benzoyl-4-hydroxy-2-(4-nitrophenyl)-5-oxo-2,5-dihydro-1H-pyrrol-1-yl)-2-hydroxybenzoic Acid] | – | completely inactive | –
10 | O=C(O)c1cc(N2C(=O)C(O)=C(c3ccccc3)C2c2ccc([N+](=O)[O-])cc2)ccc1O (single isomer, unassigned; (-)) [(−)-28, 2-Hydroxy-5-(3-hydroxy-5-(4-nitrophenyl)-2-oxo-4-phenyl-2,5-dihydro-1H-pyrrol-1-yl) benzoic Acid] | – | no 14-3-3/ERα PPI stabilization activity | –
11 | O=C(C1=C(O)C(=O)N(c2ccc(O)c(C(=O)O)c2)C1c1ccc([N+](=O)[O-])cc1)c1cccc(OC(F)F)c1 (centres unmarked) [Compound 19, 5-(3-(3-(Difluoromethoxy)benzoyl)-4-hydroxy-2-(4-nitrophenyl)-5-oxo-2,5-dihydro-1H-pyrrol-1-yl)-2-hydroxybenzoic Acid] | abolished activity | abolished activity | –
